Results as given in article PMC6630837 (Pharmaceuticals, 2019).
“Also recorded” adds a separate entry of the source.

Key:
[1] = biological target: T1, butyrylcholinesterase (BuChE) (Equus caballus, UniProt P81908); assay: biochemical; settings: read-out: BuChE inhibitory efficacy (percentage of inhibition)
T1 construct: (BuChE, equine serum); from tissue; host or cells: equine serum
Experimental: Experimental procedures for cholinesterase inhibition a s sa y s. For cholinesterase inhibition tests (acetylcholinesterase (AChE, electrophorus
el ec t r ic u s) a n d b ut yr ylcholinesterase (BuChE, equine serum), the Ellman’s cholorimetric assay1 was followed, with minor modifications. DMSO
was kept within 1.25% cuvette concentration. The chromogenic agent DTNB [5,5’-dithiobis(2-nitrobenzoic acid)] was fixed at 0.975 mM
con centration; 0. 1 M phosphate buffer (pH 8. 0) was employed, T = 25 °C, and the reaction was monitored for 125 s. […]
of inhibition, the substrate concentration (acetylthiocholine iodide for AChE; S- butyr ylthiocholine iodide for BuChE) was fixed at 29 µM for
AChE and at 18.2 µM concentration for BuChE.
Lineweaver-Burk plot (or double reciprocal plot, 1/V vs . 1/ [S ]) wa s u se d for estimating both, the mode of inhibition and the inhibition constants […]
Competitive inhibition (inhibitor only bonds the free enzyme):
KKiiii = [II ]KKMM iiaaaa
M i xe d inhibition (inhibitor binds both, the free and the complexed enzyme) :
Uncompetitive (the inhibitors only binds the complexed enzyme):
N on -competitive (inhibitor binds both the free enzyme and the complexed enzyme with equal affinity) :
Table S3. […]
of the synthesized flavone analogues at 100 µ M.
C omp ou n d N o. AChE B uChE

[2] = tested on: SH-SY5Y neuroblastoma cells; assay: Cytotoxic activity of compounds alone, MTT cell viability assay; settings: 50 μM compound alone, 24 h, 37 °C, 0.5% DMSO, SH-SY5Y
Experimental: Neuroprotective assays in human neuroblastoma (SH-SY5Y) cells. SH-SY5Y cells were grown in Dulbecco’s Modified Eagle Medium (DMEM, Gibco, Life Technologies) supplemented with 10% fetal bovine serum (FBS, Biochrom GmbH) and 1% Penicillin-Streptomycin (Gibco, Life Technologies) in a humidified incubator at 37 °C, 5% CO2. For the neuroprotective activity assay, undifferentiated SGSY-5Y cells were plated onto 96-well flat-bottomed microtiter plates at a density of 1 × 10^4 cells/well in DMEM supplemented with 2% FBS and preincubated for 24 h at 37 °C, 5% CO2. Compounds (stored as 10 mM solutions in DMSO at −20 °C) were then added to achieve a final concentration of 50 μM and, after 30 min, cells were incubated in the presence or absence of 20 μM Aβ protein fragment 1-42 (Sigma-Aldrich, dissolved in DMSO and stored in 2 mM aliquots at −20 °C) or 100 μM of H2O2 (Sigma-Aldrich, dissolved to 10 mM in 0.9% NaCl aqueous solution immediately prior to the assay) overnight at 37 °C, 5% CO2. […] The following morning, 20 μL of a 5 mg/mL solution of 3-(4,5-dimethylthiazol-2-yl)-2,5-diphenyltetrazolium bromide (MTT, Sigma-Aldrich) in PBS (Gibco, Life Technologies) was added to each well and the plates were further incubated for 4 h at 37 °C, followed by the addition of DMSO (200 μL) to each well in order to dissolve the resulting formazan crystals. After 2 h incubating at 37 °C, the optical density (OD) at 540 nm (with a 620 nm reference filter) was measured in an Amersham Biosciences Biotrak II Plate Reader. The percentage of MTT reduction was determined according to Equation (1). […] Differences between experimental conditions were compared for statistical significance by one-way ANOVA followed by a Tukey’s post-test, an analysis carried out using GraphPad Prism Software (LA Jolla, CA, USA). Differences were considered significant when P < 0.05. In order to exclude direct MTT reduction, compounds were also tested in (a) the absence of cells and (b) in the absence of both cells and culture medium, using the same experimental conditions described above. (2) MTT Reduction (% of Control)=[ODsample−ODmedium/ODcell control−ODmedium] × 100 […]
Tabl e S2. Cytotoxic activity of each compound assessed in SH-SY5Y neuroblastoma cells via an MTT cell viability assay.a Comp ound Nr. MTT reduction (% control) p-va l u e vs . untreated cell control (unpai red t-t es t) […]
a Cells were incubated for 24 h at 37 °C, in the presence (50 μM) or absence of each compound.

[3] = LogD7.4 determination (octan-1-ol/phosphate buffer, LC-MS); format: physicochemical; settings: octan-1-ol/phosphate buffer, pH 7.4, octan-1-ol/phosphate buffer pH 7.4, 25 °C; read-out: Log D7.4 (partition coefficient at pH 7.4)
Experimental: LogD7.4 determination. The in-silico prediction tool ALOGPS [4] was used to estimate the octanol-water partition coefficients (log P) of the compounds. […] For each category, two different ratios (volume of octan-1-ol to volume of buffer) were defined as experimental parameters (Table 2).
Equal amounts of phosphate buffer (0.1 M, pH 7.4) and octan-1-ol were mixed and shaken vigorously for 5 min to saturate the phases. The mixture was left until separation of the two phases, and the buffer was retrieved. Stock solutions of the test compounds were diluted with buffer to a concentration of 1 μM. For each compound, three determinations per octan-1-ol:buffer ratio were performed in different wells of a 96-well plate. The respective volumes of buffer-containing analyte (1 μM) were pipetted to the wells and covered by saturated octan-1-ol according to the chosen volume ratio. […] The aqueous phase was transferred to a 96-well plate for analysis by liquid chromatography-mass spectrometry (LCMS, see below).
Results are presented as the mean ± SD of three independent experiments.
LC-MS measurements. […] The system was controlled with the Agilent MassHunter Workstation Data Acquisition software (version B.01.04). The column used was an AtlantisR T3 C18 column (2.1 × 50 mm) with a 3 μm-particle size (Waters Corp., Milford, MA, USA). The mobile phase consisted of eluent A: 10 mM ammonium acetate, pH 5.0 in 95:5, H2O:MeCN; and eluent B: MeCN containing 0.1% formic acid. The flow rate was maintained at 0.6 mL/min. […] MS parameters such as fragmentor voltage, collision energy, and polarity were optimized individually for each drug, and the molecular ion was followed for each compound in the multiple reaction monitoring mode. The concentrations of the analytes were quantified by the Agilent Mass Hunter Quantitative Analysis software (version B.01.04).

[4] = biological target: acetylcholinesterase (AChE) (Electrophorus electricus, UniProt O42275); assay: Acetylcholinesterase inhibition, Ellman's colorimetric assay; format: biochemical; settings: 100 µM compound
Experimental: For cholinesterase inhibition tests (acetylcholinesterase (AChE, electrophorus
was kept within 1.25% cuvette concentration.
AChE and at 18.2 µM concentration for BuChE. […]

[5] = tested on: SH-SY5Y human neuroblastoma cells; assay: Neuroprotection against Aβ1-42-induced toxicity, MTT cell viability assay; format: cell-based; settings: 50 μM compound, 20 μM Aβ1-42, 24 h, 37 °C
Experimental: Neuroprotective activity assays against Aβ1-42-induced toxicity. From all compounds tested in the above presented assay, the pair 8 and 19 presented the strongest neuroprotective potential, with convincing proof on the importance of the aglycone for the desired neuroprotective effects against H2O2-induced cell injury. […] Here, the MTT assay was used once again to assess cell viability of SH-SY5Y cells treated with 20 μM of Aβ1-42, in the presence of 50 μM of each compound. Similar protocols have been used to screen candidates for AD therapy. Moreover, based on the existing evidence that in situ spontaneous fibrillization of Aβ1-42 in the incubation mixture is important in the triggering of neurotoxic effects, we added the Aβ1-42 peptide fragment dissolved in DMSO to the culture medium prior to incubation, together with each compound in study. […] Even though there is published evidence that undifferentiated SH-SY5Y cells are not as sensitive to Aβ1-42-induced neurite degeneration and apoptosis as differentiated ones, with 20 μM of Aβ1-42 we were able to observe a significant decrease in cellular MTT reduction capacity, corresponding to roughly half of the cell viability rates observed in the non-treated control.
(§1) Neuroprotective assays in human neuroblastoma (SH-SY5Y) cells. […] Differences were considered significant when P < 0.05.

[6] = tested on: SH-SY5Y human neuroblastoma cells; assay: Neuroprotection against H2O2-induced toxicity, MTT cell viability assay; format: cell-based; settings: 50 μM compound, 100 μM H2O2, 24 h, 37 °C
Source text: Neuroprotective activity assays against H2O2-induced toxicity. On the basis of previously described protocols, the flavones and analogues herein synthesized were screened for their neuroprotective effects against H2O2-induced oxidative stress and neuronal damage in SH-SY5Y human neuroblastoma cells by means of a thiazolyl blue tetrazolium bromide (MTT) reduction-based cell viability assay.
as §1

[7] = format: in vitro ADME; settings: PAMPA, pH 7.4, 16 h
Experimental: Parallel artificial membrane permeability assay (PAMPA). Effective permeability (log Pe) was determined in a 96-well format with PAMPA [34]. For each compound, measurements were performed at pH 7.4 in quadruplicates. Four wells of a deep well-plate were filled with 650 μL of PRISMA HT universal buffer, adjusted to pH 7.4 by adding the requested amount of NaOH (0.5 M). Samples (150 μL) were withdrawn from each well to determine the blank spectra by UV/Vis-spectroscopy (190 to 500 nm, SpectraMax 190, Molecular Devices, Silicon Valley, CA, USA). Then the analyte, dissolved in DMSO (10 mM), was added to the remaining buffer to yield 50 μM solutions. To exclude precipitation, the optical density (OD) was measured at 650 nm, and solutions exceeding OD 0.01 were filtrated. Afterwards, samples (150 μL) were withdrawn to determine the reference spectra. […] The filter membranes at the bottom of the acceptor plate were infused with 5 μL of GIT-0 Lipid Solution and 200 μL of Acceptor Sink Buffer were filled into each acceptor well. The sandwich was assembled, placed in the GutBox^TM, and left undisturbed for 16 h. Then, it was disassembled and samples (150 μL) were transferred from each donor and acceptor well to UV-plates for determination of the UV/Vis spectra.

acetylcholinesterase (AChE), sequence (O42275 24-633): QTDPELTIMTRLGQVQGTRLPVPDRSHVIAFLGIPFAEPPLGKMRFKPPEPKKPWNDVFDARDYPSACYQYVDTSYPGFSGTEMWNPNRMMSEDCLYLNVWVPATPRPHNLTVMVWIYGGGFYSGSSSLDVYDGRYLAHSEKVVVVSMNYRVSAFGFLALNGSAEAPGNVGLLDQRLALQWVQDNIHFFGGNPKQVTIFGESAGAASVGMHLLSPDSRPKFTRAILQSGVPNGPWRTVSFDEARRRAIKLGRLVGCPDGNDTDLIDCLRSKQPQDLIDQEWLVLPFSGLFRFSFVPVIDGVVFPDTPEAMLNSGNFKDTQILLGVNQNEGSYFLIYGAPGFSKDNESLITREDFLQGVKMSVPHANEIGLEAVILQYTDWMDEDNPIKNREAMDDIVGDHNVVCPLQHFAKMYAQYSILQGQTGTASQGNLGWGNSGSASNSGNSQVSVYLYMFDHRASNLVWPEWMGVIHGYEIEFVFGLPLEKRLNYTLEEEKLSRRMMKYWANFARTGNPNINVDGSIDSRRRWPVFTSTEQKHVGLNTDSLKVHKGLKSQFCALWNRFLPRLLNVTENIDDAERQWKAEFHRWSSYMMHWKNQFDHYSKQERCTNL
T1 sequence (P81908 whole entry): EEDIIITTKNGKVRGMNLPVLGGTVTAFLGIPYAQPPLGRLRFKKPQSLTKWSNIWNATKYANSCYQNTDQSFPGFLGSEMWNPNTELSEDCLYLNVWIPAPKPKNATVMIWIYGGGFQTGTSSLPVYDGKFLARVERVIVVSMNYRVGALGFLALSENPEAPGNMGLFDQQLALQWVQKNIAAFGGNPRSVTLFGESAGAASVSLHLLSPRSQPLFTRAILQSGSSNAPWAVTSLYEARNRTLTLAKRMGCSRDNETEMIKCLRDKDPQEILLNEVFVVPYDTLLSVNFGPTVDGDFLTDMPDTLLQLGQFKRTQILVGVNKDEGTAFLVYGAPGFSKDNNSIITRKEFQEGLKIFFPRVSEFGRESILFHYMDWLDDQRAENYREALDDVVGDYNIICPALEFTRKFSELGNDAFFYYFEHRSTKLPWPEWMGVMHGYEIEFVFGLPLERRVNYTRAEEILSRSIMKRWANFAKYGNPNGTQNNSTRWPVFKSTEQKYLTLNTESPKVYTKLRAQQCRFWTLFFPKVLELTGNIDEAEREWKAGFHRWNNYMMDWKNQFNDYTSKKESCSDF

Structure (SMILES)	inhibition at 100 µM [1] [%]	MTT reduction (% control) [2] [%]	logD [3]	AChE inhibitory efficacy (percentage of inhibition) [4]	Neuroprotective effect against Aβ1-42-induced toxicity (MTT cell viability) [5]	Neuroprotective effect against H2O2-induced toxicity (MTT cell viability) [6]	Log Pe (effective permeability) [7]
O=c1cc(-c2ccc(F)cc2)oc2cc(O)cc(O)c12 [Compound 7, 4′-Fluoro-5,7-dihydroxyflavone]	23	109.4 ± 11.4	> 2.5	n.i .	contrarily	–	–
O=c1cc(-c2ccc(N3CCOCC3)cc2)oc2cc(O)cc(O)c12 [Compound 8, 5,7-Dihydroxy-4′-(morpholin-4-yl)flavone]	–	57.6 ± 25.5	> 2.5	–	displayed relevant neuroprotective effects against Aβ1-42	able to produce statistically significant differences when compared to H2O2 controls	–
O=c1cc(-c2ccc(F)cc2)oc2c([C@@H]3O[C@H](CO)[C@@H](O)[C@H](O)[C@H]3O)c(O)cc(O)c12 [Compound 18, 4′-Fluoro-8-(β-D-glucopyranosyl)-5,7-dihydroxyflavone]	–	136.7 ±12.9	-0.2 ± 0.1	–	–	–	no detectable permeability; also recorded: Below detection limit
